Here are results for 5 molecules from BindingDB's records for doi:10.1016/s0960-894x(03)00589-4 (University of California Irvine, 2003).

This assay is described as follows: Inhibitory concentration required against protein phosphatase 1 using pNPP assay.

Usually IC50 stands for the concentration that inhibits the measured activity by half. Lower therefore signals higher potency. As to `COC(=O)[C@@H](CCC(=O)N(C)C)NC(=O)[C@@H](C)[C@H](/C=C/C(C)=C/[C@H](C)[C@H](Cc1ccccc1)OC)NC(C)=O` [(R)-2-((4E,6E)-(2S,3S,8S,9S)-3-Acetylamino-9-methoxy-2,6,8-trimethyl-10-phenyl-deca-4,6-dienoylamino)-4-dimethylcarbamoyl-butyric acid methyl ester], the IC50 was > 100 µM. The value for `CO[C@@H](Cc1ccccc1)[C@@H](C)/C=C(C)/C=C/[C@H](NC(C)=O)[C@H](C)C(=O)N[C@H](CCC(=O)N(C)C)C(=O)O` [(R)-2-((4E,6E)-(2S,3S,8S,9S)-3-Acetylamino-9-methoxy-2,6,8-trimethyl-10-phenyl-deca-4,6-dienoylamino)-4-dimethylcarbamoyl-butyric acid] was > 100 µM. The value for `CO[C@@H](Cc1ccccc1)[C@@H](C)/C=C(C)/C=C/[C@H](NC(C)=O)[C@H](C)C(=O)N[C@H](CCC(=O)N(C)CC(=O)N[C@H](C)C(=O)O)C(=O)O` [(R)-2-((4E,6E)-(2S,3S,8S,9S)-3-Acetylamino-9-methoxy-2,6,8-trimethyl-10-phenyl-deca-4,6-dienoylamino)-4-{[((R)-1-carboxy-ethylcarbamoyl)-methyl]-methyl-carbamoyl}-butyric acid] was 400 µM; that for `CO[C@@H](Cc1ccccc1)[C@@H](C)/C=C(C)/C=C/[C@H](NC(C)=O)[C@H](C)C(=O)N[C@H](CCC(=O)N(C)CC(=O)N[C@H](C)C(=O)N[C@@H](CC(C)C)C(=O)O)C(=O)O` [(S)-2-[(R)-2-(2-{[(R)-4-((4E,6E)-(2S,3S,8S,9S)-3-Acetylamino-9-methoxy-2,6,8-trimethyl-10-phenyl-deca-4,6-dienoylamino)-4-carboxy-butyryl]-methyl-amino}-acetylamino)-1-oxo-propylamino]-4-methyl-pentanoic acid] was 230 µM. As for `C=C(C(=O)N[C@H](C)C(=O)N[C@@H](CC(C)C)C(=O)O)N(C)C(=O)CC[C@@H](NC(=O)[C@@H](C)[C@H](/C=C/C(C)=C/[C@H](C)[C@H](Cc1ccccc1)OC)NC(C)=O)C(=O)O` [(S)-2-[(R)-2-(2-{[(R)-4-((4E,6E)-(2S,3S,8S,9S)-3-Acetylamino-9-methoxy-2,6,8-trimethyl-10-phenyl-deca-4,6-dienoylamino)-4-carboxy-butyryl]-methyl-amino}-acryloylamino)-1-oxo-propylamino]-4-methyl-pentanoic acid], the figure is 75 µM.
